From patent US8163870B2, “Channel forming peptides” (Kansas State University Research Foundation, priority 2000, dated 2012)
Where “and” joins values, the source holds several entries; their conditions need not be identical. Equal entries are not always repeated. Where two headings read alike, the source gives them in different places. Non-standard residues stand in square brackets, D forms with d. No end group written: not given here.

Assays:
MDCK monolayers = experiment: Transepithelial electrical resistance (RTE) / conductance (gTE) across MDCK monolayers; format: cell-based, canine; settings: for effect on transepithelial electrical resistance: upon onset of channel activity
Experimental: (§1) Transepithelial ion transport was evaluated in a modified Ussing chamber (Model DCV9, Navicyte, San Diego, Calif.). The Ussing chamber's fluid resistance compensation was completed in Ringer solution (composition (in mM) was 120 NaCl, 25 NaHCO3 3.3 KH2HPO4, 0.8 K2HPO4, 1.2 MgCl2, 1.2 CaCl2). For electrical measurements cell monolayers were bathed in Ringer solution maintained at 37° C. and continuously bubbled with 5% CO2:95% O2. The transepithelial membrane potential (Vte) was clamped to zero and the transepithelial short circuit current (Isc), an indicator of net ion transport, was measured continuously with a voltage clamp apparatus (Model 558C, University of Iowa, Department of Bioengineering, Iowa City, Iowa). Data were digitally acquired at 1 Hz with a Macintosh computer (Apple Computer, Cuppertino, Calif.) using Aqknowledge software (ver. 3.2.6, BIOPAC Systems, Santa Barbara, Calif.) with an MP100A-CE interface.
MDCK cell monolayers (in the presence of 1-EBIO to maximize basolateral membrane K^+ conductance) were exposed on the apical aspect to various concentrations of selected peptides as indicated.
In this experiment, the MDCK monolayers were initially incubated with 60 μM of SEQ ID No. 27. When the residual resistance reached approximately 10% of the starting value, the peptide was removed by aspiration and followed by the addition of pre-warmed Ringer solution. This solution was subsequently removed and replaced an additional five times over the next 2 minutes. In this figure, the solid central line represents the measured current at zero mV and the vertical deflections represent the current recorded during periodic 1 mV bipolar pulses. Pulse amplitude is inversely proportional to RTE in accordance with Ohm's law.
Additional experiments have been conducted to test for complete reversibility of peptide-induced changes in RTE. Monolayers were exposed to peptide (60 μM) in an Ussing chamber for ˜20 minutes to document decreases in RTE, recovered and returned to the cell culture incubator for two to five days with the apical and basolateral media refreshed daily before subsequent assessment of basal RTE and responsiveness to peptide. In the previous example, the return of RTE was only followed for hours. In this example, the restoration of RTE was measured over days to determine the minimum time require for full recovery.
Electrical measurements. Transepithelial ion transport was evaluated in modified Ussing chambers (Model DCV9; Navicyte, San Diego, Calif.). For typical electrical measurements of ion flux, cells were bathed in symmetrical Ringer solution (composition in mM: 120 NaCl, 25 NaHCO3, 3.3 KH2HPO4, 0.8 K2HPO4, 1.2 MgCl2, 1.2 CaCl 2; 290±2 mOsmol). The diffusion chambers were maintained at 37° C. and continuously bubbled with 5% CO2/95% O2 to maintain pH, provide aeration and mix the fluid in the chambers. The transepithelial potential (VTE) was clamped to zero, and ISC measured continuously with a voltage-clamp apparatus (Model 558C, University of Iowa, Department of Bioengineering, Iowa City, Iowa). Data were acquired at 1 Hz with a Macintosh computer (Apple Computer, Cuppertino, Calif.) using Aqknowledge software (ver. 3.2.6; BIOPAC Systems, Santa Barbara, Calif.) with an MP100A-CE interface. gTE was determined by exposing the epithelia to a 5 second 1 mV bipolar pulse at 100 second intervals. The recorded current deflections were used with Ohms law to calculate gTE: […]

[1] = cited from earlier work
MDCK cells = format: cell-based, canine
Text: Cell culture: MDCK cells were a generous gift of Dr. Lawrence Sullivan (Kansas University Medical Center, Kansas City, Kans.). T84 cells were obtained from Dr. Daniel Devor (University of Pittsburgh, Pittsburgh, Pa.). MDCK and T84 cells were maintained with similar culture procedures. The culture medium was a 1:1 mixture of DMEM and Ham's F-12 (Gibco BRL, Grand Island, N.Y.) supplemented with 5% heat inactivated fetal bovine serum (BioWhittaker, Walkersville, Md.), and 1% penicillin and streptomycin (Gibco BRL). Cells were grown in plastic culture flasks in a humidified environment with 5% CO2 at 37° C. and passaged every 5-7 days. For Ussing chamber experiments, cells were plated on 1.13 cm^2 permeable supports (Snapwell™, Costar®, Cambridge, Mass.) at a density of approximately 1×10^6 cells/well and incubated in DMEM/F-12 supplemented with FBS and antibiotics (changed every other day) for 2-3 weeks prior to being mounted in modified Ussing flux chambers.
To form monolayers, the cells were plated onto the upper surface of a permeable membrane that forms the bottom of a plastic well. Two types were used. One was the Transwell™ insert (Costar®, Cambridge, Mass.) supported in a six-well tissue culture plate and the other type was the Snapwell™ (Costar®, Cambridge, Mass.). During incubation, the medium was replaced at 48-72 hour intervals. Confluent monolayers formed within 72 hours. Experiments were performed on the monolayers 6-9 days after the initial plating. Net fluid secretion responses were optimal after six days.
Solutions: Ringer solution was made fresh daily. The final concentration (in mM) was 120 NaCl, 25 NaHCO3 3.3 KH2HPO4, 0.8 K2HPO4, 1.2 MgCl2, 1.2 CaCl2, (290±2 mOsmol). All components of the Ringer solution were from Sigma (St. Louis, Mo.).
as §1, with “Epithelial electrical measurements: Transepithelial” for “Transepithelial”, “(see below).” for “(composition (in mM) was 120 NaCl, 25 NaHCO3 3.3 KH2HPO4, 0.8 K2HPO4, 1.2 MgCl2, 1.2 CaCl2).”
as §1
MDCK cell monolayers (in the presence of 1-EBIO to maximize basolateral membrane K^+ conductance) were exposed on the apical aspect to escelating peptide concentrations. Maximal change in Isc (relative to the Isc prior to peptide exposure) was recorded following each increment in apical peptide concentration. […]

[2] = target: T1, tetrameric channel (four-helix bundle M2GlyR) (Homo sapiens, UniProt P23415); settings: cited from earlier work
T1 construct: four identical M2GlyR peptide units were tethered to a 9-amino acid carrier template to form a four-helix bundle protein; 9-amino acid carrier template (tethers four peptide units); host or cells: synthetic peptide construct reconstituted in lipid bilayers

[3] = Circular dichroism in 20% TFE; format: physicochemical; settings: water containing 20% TFE
Experimental: Circular dichroism: Circular dichroism spectra were recorded on a Jasco Model J-720 spectropolarimeter in the range 180-250 nm using quartz cuvettes with a 0.2 mm pathlength. Eight scans recorded at a rate of 20 nm/minute were averaged and corrected for contributions of buffer (10 mM HEPES, pH 7.2). […] The molar ellipticity was calculated using d-10-camphorsulfonic acid (290.5=7783° cm2 dmol 1) as a reference (Chen, G. C., and J. T. Yang. 1977. Two point calibration of spectropolarimeter with d-10-camphorsulfonic acid. Anal. Lett. 10:1195-1207.). The line shapes of the spectra were analyzed using a least-square fitting routine by comparison to polylysine standards representing 100%-helix, -turn, or random coil, respectively.

[4] = Chemical cross-linking (BS3) and SDS-PAGE, oligomeric state of peptide in solution; format: physicochemical; settings: SDS-PAGE
Experimental: Chemical cross-linking: In order to visualize the oligomeric state of the peptide in solution a chemical cross-linking protocol was developed. Calculated amounts of each peptide were weighted out and dissolved in 1 mL of distilled water to make 1 mM stock solutions. A 100 mM stock solution of the chemical crosslinking reagent Bis[Sulfosuccinimidyl]suberate, BS^3, (Pierce Chemical Co., Rockford, Ill.) was prepared in dimethyl sulfoxide (DMSO). […] Sample were allowed to sit at room temperature for 15 minutes. 1-6 μL of 100 mM BS^3 was then added to the previously prepared peptide such that the crosslinking reagent was present in 20-fold excess. The final volume for each reaction was 100 μL. […] Each sample was then vacuum dried. Later dry samples were re-dissolved in 60 μL of distilled water along with 60 μL of a 2×-tricine SDS sample buffer (Novex, San Diego). All samples were then boiled at 100° C. for 5 minutes. 5 μL aliquots of each SDS boiled sample was then loaded into separate lanes of pre-cast, 1.0 mm, 10 well, 10-20% tricine gels (Novex, San Diego). Pre-made Novex tricine-SDS buffer was used in the electrophoresis. The reference well contained 1 μL of MultiMark® multi-colored molecular weight standard (Novex, San Diego). The electrophoresis was carried out at a constant 110 Volts for 90 minutes. […]

**Q.** For “KKKKPARVGLGITTVLTMTTRW (Modified Homo sapiens) [SEQ ID No. 55]”, which “decrease in RTE” value (MDCK monolayers; 100 μM) is on record?
**A.** ~70%

**Q.** And the “decrease in RTE” value (MDCK monolayers; 200 μM)?
**A.** ~90%

**Q.** What about the “effect on transepithelial electrical resistance” value (MDCK monolayers) of the same compound?
**A.** dramatic decrease in transepithelial electrical resistance

**Q.** Which “transference number for anions” value ([1]; 5-fold KCl concentration gradient) does the source give for “PARVGLGITT VLTMTTQSSG SRA (PARVGLGITTVLTMTTQSSGSRA; listed as Homo sapiens) [SEQ ID No. 1]” here?
**A.** 0.85

**Q.** What about the single-channel conductance ([1]; symmetric 0.5 M KCl, listed as M2GlyR) of the same compound?
**A.** 25 pS and 49 pS

**Q.** What about the “Activity profile in MDCK cells” value (MDCK cells; peptide at 500 μM) of the same compound?
**A.** 1.5 at 500 μM μA/cm2

**Q.** For `Cc1cccc(C)c1NC(=O)C[N+](C)(C)C` [QX-222], which “block of the tetrameric channel” value [2] is on record?
**A.** not blocked

**Q.** For “PARVGLGITTVLVTTIGLGVRAPKKKK [SEQ ID No. 19, PARVGLGITT VLVTTIGLGV RAPKKKK]”, which “effect on isolated cells” value (isolated cells) is on record?
**A.** cytotoxic effects

**Q.** For `O=C(O)c1cccnc1Nc1cccc(C(F)(F)F)c1` [NFA, niflumic acid], which “block of the tetrameric channel” value [2] is on record?
**A.** blocked

**Q.** With “all-D amino acid form of SEQ ID NO. 27: all-D amino acid form of SEQ ID NO. 27 ([dK][dK][dK][dK][dA][dA][dR][dV]G[dL]G[dI][dT][dT][dV][dL][dV][dT][dT][dI]G[dL]G[dV][dR][dA][dA])” as the compound, how does the “concentration triggering conductance increases” value (MDCK monolayers) read?
**A.** 40 µM

**Q.** Which “secondary structure by CD” value [3] does the source give for “KKKKPARVGL GITTVLVTTI GLGVRAA (KKKKPARVGLGITTVLVTTIGLGVRAA; Modified Homo sapiens) [SEQ ID No. 26]” here?
**A.** helical structure

**Q.** What about the “peptide concentration producing maximal effect on Isc (Imax)” value (MDCK cells; MDCK monolayers) of the same compound?
**A.** 100 µM

**Q.** What about the “Activity profile in MDCK cells” value (MDCK cells; peptide at 100 μM) of the same compound?
**A.** 25.7 at 100 μM μA/cm2

**Q.** And the “effect on transepithelial electrical resistance” value (MDCK monolayers)?
**A.** dramatic decrease in transepithelial electrical resistance

**Q.** With “KKKKPARVGLGITTVLVTTIGLGVRAP [SEQ ID No. 18, KKKKPARVGL GITTVLVTTI GLGVRAP]” as the compound, how does the “effect on isolated cells” value (isolated cells) read?
**A.** not harmful to isolated cells

**Q.** What about the EC50 (MDCK cells; MDCK monolayers, modified Hill equation fit, read-out: half maximal effect on Isc (EC50 / K1/2)) of the same compound?
**A.** 50 µM

**Q.** Which “effect on transepithelial electrical resistance” value (MDCK monolayers) does the source give for “KKKKPARVGLGITTVLTMTTQW (Modified Homo sapiens) [SEQ ID No. 54]” here?
**A.** dramatic decrease in transepithelial electrical resistance

**Q.** With “KKKKAARVGL GITTVWVTTI GLGVRAA (KKKKAARVGLGITTVWVTTIGLGVRAA; Modified Homo sapiens) [SEQ ID No. 9]” as the compound, how does the “Activity profile in MDCK cells” value (MDCK cells; peptide at 100 μM) read?
**A.** 20.0 μA/cm2

**Q.** What about the “Activity profile in MDCK cells” value (MDCK cells; peptide at 100 μM, listed as 9) of the same compound?
**A.** 20.0 at 100 μM μA/cm2

**Q.** What about the “aggregation state in solution” value [4] of the same compound?
**A.** remained in monomer form

**Q.** What about the “effect on transepithelial electrical resistance” value (MDCK monolayers) of the same compound?
**A.** dramatic decrease in transepithelial electrical resistance

**Q.** Which “secondary structure by CD” value [3] does the source give for “KKKKVTTIGL GVRAPLVTTI GLGVRAA (KKKKVTTIGLGVRAPLVTTIGLGVRAA; Modified Homo sapiens) [SEQ ID No. 5]” here?
**A.** beta-sheet

**Q.** And the “Activity profile in MDCK cells” value (MDCK cells; peptide at 500 μM)?
**A.** <1.0 at 500 μM μA/cm2

**Q.** With `O=C(O)c1c2ccccc2cc2ccccc12` [9-AC, 9-anthracene carboxylic acid] as the compound, how does the “block of the tetrameric channel” value [2] read?
**A.** blocked
